Test results as given in patent US8389508B2 (Glaxo Group Limited, priority 2010, dated 2013).
Where a name gives a salt, the structure may show the parent alone.

Each compound was assayed against T1, human Endothelial Differentiation Gene 1 (EDG1), S1P1 receptor (Homo sapiens, UniProt P21453) (assay: S1P1 Assay (Tango EDG1-bla/U2OS beta-lactamase reporter, agonist dose response)). Conditions: EDG1-bla/U2OS cells, blue/green emission ratio, 10 point dose response, free base or salt form; read-out: pEC50 (S1P1 assay) (converted).
T1 construct: TEV protease site; Gal4-VP16 transcription factor; expressed in transfected cells; host or cells: EDG1-bla/U2OS (Tango GPCR-bla U2OS parental cell line)
T1 sequence (P21453 whole entry, the tested form may be a part): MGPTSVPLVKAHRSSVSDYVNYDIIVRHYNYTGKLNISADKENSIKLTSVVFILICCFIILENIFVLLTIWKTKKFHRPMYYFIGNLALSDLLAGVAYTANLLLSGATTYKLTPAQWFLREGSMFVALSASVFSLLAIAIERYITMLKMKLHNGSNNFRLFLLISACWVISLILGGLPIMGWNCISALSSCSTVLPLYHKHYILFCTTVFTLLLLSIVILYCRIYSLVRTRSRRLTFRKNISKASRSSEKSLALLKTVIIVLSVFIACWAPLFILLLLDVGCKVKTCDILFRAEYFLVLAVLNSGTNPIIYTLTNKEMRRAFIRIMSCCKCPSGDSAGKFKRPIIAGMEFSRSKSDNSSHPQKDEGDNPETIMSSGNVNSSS
Assay type: cell-based
Protocol: Recombinant EDG1-bla/U2OS cells (contain the human Endothelial Differentiation Gene 1 (EDG1) linked to a TEV protease site and a Gal4-VP16 transcription factor stably integrated into the Tango GPCR-bla U2OS parental cell line) were harvested from growth medium and passaged into assay medium (Invitrogen Freestyle Expression Medium). The cells were starved for 24 hours at 37° C., 5% CO2, harvested and resuspended in assay medium at a density of ˜200,000 cells/ml. All test compounds were dissolved in DMSO at a concentration of 10 mM and were prepared in 100% DMSO to provide 10 point dose response curves. Test compounds in the free base or in a salt form were prepared by Velocity11 Bravo automation (Agilent) were added to wells in columns 2-11 and 13-22; DMSO was added to wells in columns 12 and 23 as unstimulated controls and assay medium was added to wells in columns 1 and 24 as cell-free controls. An S1P1 agonist was added to wells in row 2, columns 2-11 as stimulated controls and test compounds were added to wells in row 2, columns 13-22 and rows 3-15, columns 2-11/13-22 (row 1 and 16 were empty and not used). Compounds in solution were added to the assay plate (Greiner 781090) using an Echo (Labcyte) dose-response program (50 nl/well). The unstimulated and cell-free controls were loaded with 50 nl/well pure DMSO to ensure that the DMSO concentration was constant across the plate for all assays. 50 μl of the cell suspension was added to each well in columns 2-23 of the plate (˜10,000 cells per well). 50 μl of assay medium was added to each well in the cell-free controls (columns 1 and 24). The cells were incubated overnight at 37° C./5% CO2.
(§1) 10 μl of 6× substrate mixture (LiveBLAzer™-FRET B/G substrate (CCF4-AM) Cat # K1096 from Invitrogen, Inc.) was added to each well using Bravo automation and the plates incubated at room temperature for 2 h in the dark. The plate was finally read on EnVision using one excitation channel (409 nm) and two emission channels (460 nm and 530 nm).
(§2) The blue/green emission ratio (460 nm/530 nm) was calculated for each well, by dividing the background-subtracted Blue emission values by the background-subtracted Green emission values. The dose response curve is based on sigmoidal dose-response model. All ratio data was normalized based upon the maximum emission ratio of positive control and minimum emission ratio of negative control (DMSO) on each plate. The intrinsic activity (IA) of each compound is defined as relative response normalised to a reference compound, whose maximum response is defined as 100% after curve fitting.

EC50 [nM] | SMILES
≤ 10 | CCc1c(CN2CCC(C(=O)O)CC2)cccc1-c1cnc(-c2ccc(OC(C)C)c(C#N)c2)s1 [Example 35, 1-{[3-(2-{3-cyano-4-[(1-methylethyl)oxy]phenyl}-1,3-thiazol-5-yl)-2-ethylphenyl]methyl}-4-piperidinecarboxylic acid trifluoroacetate]
< 1 | CCc1c(CN2CC(C(=O)O)C2)cccc1-c1nnc(-c2ccc(OC(C)C)c(C(F)(F)F)c2)s1 [Example 2, 1-[(2-ethyl-3-{5-[4-[(1-methylethyl)oxy]-3-(trifluoromethyl)phenyl]-1,3,4-thiadiazol-2-yl}phenyl)methyl]-3-azetidinecarboxylic acid]
< 1 | CCc1c(CCN2CC(C(=O)O)C2)cccc1-c1nnc(-c2ccc(OC(C)C)c(Cl)c2)s1 [Example 6, 1-{2-[3-(5-{3-chloro-4-[(1-methylethyl)oxy]phenyl}-1,3,4-thiadiazol-2-yl)-2-ethylphenyl]ethyl}-3-azetidinecarboxylic acid trifluoroacetate]
≤ 10 | CCc1c(CN2CC(C(=O)O)C2)cccc1-c1nsc(-c2ccc(OC(C)C)c(Cl)c2)n1 [Example 25, 1-{[3-(5-{3-chloro-4-[(1-methylethyl)oxy]phenyl}-1,2,4-thiadiazol-3-yl)-2-ethylphenyl]methyl}-3-azetidinecarboxylic acid trifluoroacetate]
< 1 | CCc1c(CCN2CCC(C(=O)O)CC2)cccc1-c1nsc(-c2ccc(OC(C)C)c(C(F)(F)F)c2)n1 [Example 21, 1-[2-(2-ethyl-3-{5-[4-[(1-methylethyl)oxy]-3-(trifluoromethyl)phenyl]-1,2,4-thiadiazol-3-yl}phenyl)ethyl]-4-piperidinecarboxylic acid]
< 1 | CCc1c(CCN2CCC(C(=O)O)CC2)cccc1-c1nsc(-c2ccc(CC(C)C)c(C#N)c2)n1 [Example 29, 1-[2-(3-{5-[3-cyano-4-(2-methylpropyl)phenyl]-1,2,4-thiadiazol-3-yl}-2-ethylphenyl)ethyl]-4-piperidinecarboxylic acid trifluoroacetate]
< 1 | CCc1c(CN2CC(C(=O)O)C2)cccc1-c1nsc(-c2ccc(OC(C)C)c(C(F)(F)F)c2)n1 [Example 19, 1-[(2-ethyl-3-{5-[4-[(1-methylethyl)oxy]-3-(trifluoromethyl)phenyl]-1,2,4-thiadiazol-3-yl}phenyl)methyl]-3-azetidinecarboxylic acid]
< 1 | CCc1c(CCN2CCC(C(=O)O)CC2)cccc1-c1nsc(-c2ccc(OC(C)C)c(Cl)c2)n1 [Example 24, 1-{2-[3-(5-{3-chloro-4-[(1-methylethyl)oxy]phenyl}-1,2,4-thiadiazol-3-yl)-2-ethylphenyl]ethyl}-4-piperidinecarboxylic acid trifluoroacetate]
≤ 10 | CCc1c(CN2CC(C(=O)O)C2)cccc1-c1nsc(-c2ccc(CC(C)C)c(C#N)c2)n1 [Example 27, 1-[(3-{5-[3-cyano-4-(2-methylpropyl)phenyl]-1,2,4-thiadiazol-3-yl}-2-ethylphenyl)methyl]-3-azetidinecarboxylic acid trifluoroacetate]
< 1 | CCc1c(CCN2CC(C(=O)O)C2)cccc1-c1nsc(-c2ccc(OC(C)C)c(C(F)(F)F)c2)n1 [Example 22, 1-[2-(2-ethyl-3-{5-[4-[(1-methylethyl)oxy]-3-(trifluoromethyl)phenyl]-1,2,4-thiadiazol-3-yl}phenyl)ethyl]-3-azetidinecarboxylic acid]
< 1 | CCc1c(CCN2CCC(C(=O)O)C2)cccc1-c1cnc(-c2ccc(OC(C)C)c(C#N)c2)s1 (stereo not drawn) [Example 90]
< 1 | CCc1c(CCN2CCC(C(=O)O)CC2)cccc1-c1cnc(-c2ccc(OC(C)C)c(Cl)c2)s1 [Example 40, 1-{2-[3-(2-{3-chloro-4-[(1-methylethyl)oxy]phenyl}-1,3-thiazol-5-yl)-2-ethylphenyl]ethyl}-4-piperidinecarboxylic acid trifluoroacetate]
< 1 | CCc1c(CCN2CC(C(=O)O)C2)cccc1-c1nsc(-c2ccc(OC(C)C)c(Cl)c2)n1 [Example 23, 1-{2-[3-(5-{3-chloro-4-[(1-methylethyl)oxy]phenyl}-1,2,4-thiadiazol-3-yl)-2-ethylphenyl]ethyl}-3-azetidinecarboxylic acid trifluoroacetate]

These compounds were tested against T2, human Endothelial Differentiation G-protein Coupled Receptor 3 (EDG3), S1P3 receptor (Homo sapiens, UniProt Q99500) (assay: S1P3 Assay (GeneBLAzer EDG3-Ga15-NFAT-bla HEK 293T beta-lactamase reporter, agonist dose response)). Conditions: EDG3-Ga15-NFAT-bla HEK 293T cells, blue/green emission ratio, 10 point dose response, free base or salt form; read-out: pEC50 (S1P3 assay) (converted).
T2 construct: expressed in transfected cells; host or cells: GeneBLAzer EDG3-Ga15-NFAT-bla HEK 293T
T2 sequence (Q99500 whole entry): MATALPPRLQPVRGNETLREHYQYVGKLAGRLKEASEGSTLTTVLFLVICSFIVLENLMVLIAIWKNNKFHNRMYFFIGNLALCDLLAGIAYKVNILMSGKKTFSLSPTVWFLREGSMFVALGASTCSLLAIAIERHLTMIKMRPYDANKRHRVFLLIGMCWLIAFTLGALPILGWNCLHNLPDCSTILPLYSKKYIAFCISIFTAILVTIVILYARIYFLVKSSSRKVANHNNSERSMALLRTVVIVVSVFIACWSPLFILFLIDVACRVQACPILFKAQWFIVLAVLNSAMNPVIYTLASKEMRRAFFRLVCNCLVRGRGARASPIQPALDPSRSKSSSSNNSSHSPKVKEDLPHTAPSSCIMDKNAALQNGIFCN
Assay type: cell-based
Protocol: GeneBLAzer EDG3-Ga15-NFAT-bla HEK 293T cells (contain the human Endothelial Differentiation G-protein Coupled Receptor 3 (EDG3) and a beta-lactamase reporter gene under control of a NFAT response element and a promiscuous G Protein, Ga15, stably integrated into the GeneBLAzer Ga15-NFAT-bla HEK 293T cell line) were harvested from growth medium and suspended in assay medium (90% DMEM, 10% Charcoal-stripped FBS, 0.1 mM NEAA, 25 mM HEPES (pH 7.3), 100 U/ml penicillin, 100 μg/ml streptomycin) at a density of […]. All test compounds were dissolved in DMSO at a concentration of 10 mM and were prepared in 100% DMSO to provide 10 point dose response curves. Test compounds in the free base or in a salt form were prepared by Velocity 11 Bravo automation (Agilent) were added to wells in columns 2-11 and 13-22; DMSO was added to wells in columns 12 and 23 as unstimulated controls and assay medium was added to wells in columns 1 and 24 as cell-free controls. An S1P3 agonist was added to wells in row 2, columns 2-11 as stimulated controls and test compounds were added to wells in row 2, columns 13-22 and rows 3-15, columns 2-11/13-22 (row 1 and 16 were empty and not used). Compounds in solution were added to the assay plate (Greiner 781090) using an Echo (Labcyte) dose-response program (50 nl/well). The unstimulated and cell-free controls were loaded with 50 nl/well pure DMSO to ensure that the DMSO concentration was constant across the plate for all assays.
50 μl of the cell suspension was added to each well in columns 2-23 of the plate (˜10,000 cells per well). 50 μl of assay medium was added to each well in the cell-free controls (columns 1 and 24). The cells were incubated overnight at 37° C./5% CO2.
as §1, §2

EC50 [nM] | SMILES
> 3160 | CCc1c(CCN2CCC(C(=O)O)C2)cccc1-c1nsc(-c2ccc(OC(C)C)c(Cl)c2)n1 (stereo not drawn) [Example 67]
> 3160 | CCc1c(-c2nnc(-c3ccc(OC(C)C)c(Cl)c3)s2)cccc1C1CCN(CCC(=O)O)CC1 [Example 95, 3-{4-[3-(5-{3-chloro-4-[(1-methylethyl)oxy]phenyl}-1,3,4-thiadiazol-2-yl)-2-ethylphenyl]-1-piperidinyl}propanoic acid trifluoroacetate]
> 3160 | CCc1c(-c2nnc(-c3ccc(OC(C)C)c(Cl)c3)s2)cccc1C1CCN(CCCC(=O)O)CC1 [Example 97, 4-{4-[3-(5-{3-chloro-4-[(1-methylethyl)oxy]phenyl}-1,3,4-thiadiazol-2-yl)-2-ethylphenyl]-1-piperidinyl}butanoic acid trifluoroacetate]
> 3160 | CCc1c(CCN2CC[C@H](C(=O)O)C2)cccc1-c1nsc(-c2ccc(OC(C)C)c(Cl)c2)n1 [Example 68]
> 10000 | CCc1c(CN2CCC(CC(=O)O)CC2)cccc1-c1nsc(-c2ccc(OC(C)C)c(C(F)(F)F)c2)n1 [Example 20, {1-[(2-ethyl-3-{5-[4-[(1-methylethyl)oxy]-3-(trifluoromethyl)phenyl]-1,2,4-thiadiazol-3-yl}phenyl)methyl]-4-piperidinyl}acetic acid]
> 10000 | CCc1c(CN2CCCC(C(=O)O)C2)cccc1-c1cnc(-c2ccc(OC(C)C)c(C#N)c2)s1 (stereo not drawn) [Example 86]
> 10000 | CCc1c(CN2C[C@H](O)C[C@H]2C(=O)O)cccc1-c1cnc(-c2ccc(OC(C)C)c(C#N)c2)s1 [Example 85]
> 3160 | CCc1c(CCN2CCC[C@H](C(=O)O)C2)cccc1-c1nsc(-c2ccc(OC(C)C)c(Cl)c2)n1 [Example 71]
> 10000 | CCc1c(CCN2CCC[C@@H]2C(=O)O)cccc1-c1cnc(-c2ccc(OC(C)C)c(C#N)c2)s1 [Example 89]
> 10000 | CCc1c(CN2CCC[C@H]2C(=O)O)cccc1-c1cnc(-c2ccc(OC(C)C)c(C#N)c2)s1 [Example 81, 1-{[3-(2-{3-cyano-4-[(1-methylethyl)oxy]phenyl}-1,3-thiazol-5-yl)-2-ethylphenyl]methyl}-L-proline trifluoroacetate]
> 3160 | CCc1c(CN2CCC(C(=O)O)CC2)cccc1-c1nnc(-c2ccc(OC(C)C)c(Cl)c2)s1 [Example 3, 1-{[3-(5-{3-chloro-4-[(1-methylethyl)oxy]phenyl}-1,3,4-thiadiazol-2-yl)-2-ethylphenyl]methyl}-4-piperidinecarboxylic acid trifluoroacetate]
